According to patent US9796733B2, “Imidazo-pyrazine derivatives useful as soluble guanylate cyclase activators” (Merck Sharp & Dohme Corp., priority 2014, dated 2017):

Target: T1, sGC α1/β1 heterodimer (Homo sapiens, UniProt Q02108+Q02153)
T1 construct: expressed in transfected cells; host or cells: CHO-K1 (clone #7, CHO-K1/sGC)
T1 sequence (Q02108 1-690): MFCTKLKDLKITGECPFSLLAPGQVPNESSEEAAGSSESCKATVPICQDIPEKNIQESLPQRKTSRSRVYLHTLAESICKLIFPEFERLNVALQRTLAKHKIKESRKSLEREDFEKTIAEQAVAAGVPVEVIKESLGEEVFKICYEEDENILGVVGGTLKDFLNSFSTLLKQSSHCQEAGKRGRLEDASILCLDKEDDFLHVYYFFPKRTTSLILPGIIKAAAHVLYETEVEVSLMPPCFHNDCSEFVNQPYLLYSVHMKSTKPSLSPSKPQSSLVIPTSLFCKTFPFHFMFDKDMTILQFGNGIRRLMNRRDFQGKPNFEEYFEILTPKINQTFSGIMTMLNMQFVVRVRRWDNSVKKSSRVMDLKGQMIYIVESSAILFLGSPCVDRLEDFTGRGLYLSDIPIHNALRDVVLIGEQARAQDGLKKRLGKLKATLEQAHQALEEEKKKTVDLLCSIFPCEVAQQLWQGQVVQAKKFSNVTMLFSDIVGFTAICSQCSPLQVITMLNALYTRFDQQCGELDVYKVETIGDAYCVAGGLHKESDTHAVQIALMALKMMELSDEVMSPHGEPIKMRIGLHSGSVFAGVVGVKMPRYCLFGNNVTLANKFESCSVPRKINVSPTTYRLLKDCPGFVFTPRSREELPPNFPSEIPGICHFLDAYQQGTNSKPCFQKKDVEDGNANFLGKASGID
T1 sequence (Q02153 1-619): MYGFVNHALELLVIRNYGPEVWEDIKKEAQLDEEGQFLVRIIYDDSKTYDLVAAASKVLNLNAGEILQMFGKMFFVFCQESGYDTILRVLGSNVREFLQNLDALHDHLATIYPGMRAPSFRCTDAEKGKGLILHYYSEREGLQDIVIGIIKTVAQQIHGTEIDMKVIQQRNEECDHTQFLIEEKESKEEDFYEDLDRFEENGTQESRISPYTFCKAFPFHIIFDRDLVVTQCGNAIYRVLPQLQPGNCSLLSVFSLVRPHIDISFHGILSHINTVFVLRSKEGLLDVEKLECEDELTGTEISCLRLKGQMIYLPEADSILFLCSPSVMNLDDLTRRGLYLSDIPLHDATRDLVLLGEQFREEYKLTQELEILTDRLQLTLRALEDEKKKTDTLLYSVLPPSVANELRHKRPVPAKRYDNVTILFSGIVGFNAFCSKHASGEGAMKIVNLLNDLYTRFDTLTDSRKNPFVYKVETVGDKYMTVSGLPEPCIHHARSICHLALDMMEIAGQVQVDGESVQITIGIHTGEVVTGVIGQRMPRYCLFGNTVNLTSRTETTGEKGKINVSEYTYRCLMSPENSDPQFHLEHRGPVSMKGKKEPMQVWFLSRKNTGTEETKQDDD
Experiment: Cell-based sGC functional assay (CASA assay): cGMP generation in CHO-K1/sGC cells, HTRF detection
Conditions: for Emax: CHO-K1, percent activation relative to standard Compound A in CHO-K1/sGC cells, read-out: % Act.; for EC50: inflection point (IP) of cGMP generation in CHO-K1/sGC cells, 4P fit, activity expressed as percentage of Compound A
Method in brief: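 Stable CHO-K1/sGC cells in EBSS buffer with 5 mM MgCl2, 0.05% BSA and 0.5 mM IBMX were incubated with compound (2.5% DMSO final) ±1 μM DETA-NO for 1 hr at 37° C. cGMP was measured by HTRF. Activation is expressed as % of reference HDA Compound A maximum, with IP and max fold induction from a 4P fit.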

SMILES	Emax [%]	EC50 [nM]
Nc1nc(-c2cn3ccnc3c(CCCC(F)(F)F)n2)nc2c1C(c1ncc(C(F)(F)F)cc1Cl)(C1CC1)C(=O)N2 (single isomer, unassigned) [Example 370B, 4-amino-5-(3-chloro-5-(trifluoromethyl)pyridin-2-yl)-5-cyclopropyl-2-(8-(4,4,4-trifluorobutyl)imidazo[1,2-a]pyrazin-6-yl)-5H-pyrrolo[2,3-d]pyrimidin-6(7H)-one]	99	262
Cc1cc(F)cnc1C1(C2CC2)C(=O)Nc2nc(-c3cn4ccnc4c(CCC(F)(F)C(F)(F)F)n3)nc(N)c21 (single isomer, unassigned) [Example 375B, 4-amino-5-cyclopropyl-5-(5-fluoro-3-methylpyridin-2-yl)-2-(8-(3,3,4,4,4-pentafluorobutyl)imidazo[1,2-a]pyrazin-6-yl)-5H-pyrrolo[2,3-d]pyrimidin-6(7H)-one]	41	931
Cc1cc(C2(C3CC3)C(=O)Nc3nc(-c4cn5ccnc5c(CCC(F)(F)C(F)(F)F)n4)nc(N)c32)ncc1F (single isomer, unassigned) [Example 376B, 4-amino-5-cyclopropyl-5-(5-fluoro-4-methylpyridin-2-yl)-2-(8-(3,3,4,4,4-pentafluorobutyl)imidazo[1,2-a]pyrazin-6-yl)-5H-pyrrolo[2,3-d]pyrimidin-6(7H)-one]	127	180
Cc1nc(C2(C3CC3)C(=O)Nc3nc(-c4cn5ccnc5c(CCCC(F)(F)F)n4)nc(N)c32)ccc1Cl (single isomer, unassigned) [Example 377B]	90	86
CC1(c2ccc(F)cc2)C(=O)Nc2nc(-c3cn4ccnc4c(CCc4ccccc4F)n3)nc(N)c21 (stereo not drawn) [Example 3A, 4-amino-2-(8-(2-fluorophenethyl)imidazo[1,2-a]pyrazin-6-yl)-5-(4-fluorophenyl)-5-methyl-5H-pyrrolo[2,3-d]pyrimidin-6(7H)-one]	139	19
CC1(c2ccc(F)cc2)C(=O)Nc2nc(-c3cn4ccnc4c(CCCc4ccccc4)n3)nc(N)c21 (stereo not drawn) [Example 5A]	109	849
CC1(c2ccc(F)cc2)C(=O)Nc2nc(-c3cn4ccnc4c(-c4ccc(C5CC5)cc4)n3)nc(N)c21 (stereo not drawn) [Example 6A, 4-amino-2-(8-(4-cyclopropylphenyl)imidazo[1,2-a]pyrazin-6-yl)-5-(4-fluorophenyl)-5-methyl-5H-pyrrolo[2,3-d]pyrimidin-6(7H)-one]	115	559
COc1ccc(-c2nc(-c3nc(N)c4c(n3)NC(=O)C4(C)c3ccc(F)cc3)cn3ccnc23)cc1 (stereo not drawn) [Example 7A, 4-amino-5-(4-fluorophenyl)-2-(8-(4-methoxyphenyl)imidazo[1,2-a]pyrazin-6-yl)-5-methyl-5H-pyrrolo[2,3-d]pyrimidin-6(7H)-one]	63	583
CCC(CC)Cc1nc(-c2nc(N)c3c(n2)NC(=O)C3(C)c2ccc(Cl)cc2)cn2ccnc12 (stereo not drawn) [Example 9A, 4-amino-5-(4-chlorophenyl)-2-(8-(2-ethylbutyl)imidazo[1,2-a]pyrazin-6-yl)-5-methyl-5H-pyrrolo[2,3-d]pyrimidin-6(7H)-one]	134	60
CC1(c2ccc(F)cc2)C(=O)Nc2nc(-c3cn4ccnc4c(CCC4CCCCC4)n3)nc(N)c21 (stereo not drawn) [Example 12A, 4-amino-2-(8-(2-cyclohexylethyl)imidazo[1,2-a]pyrazin-6-yl)-5-(4-fluorophenyl)-5-methyl-5H-pyrrolo[2,3-d]pyrimidin-6(7H)-one]	142	53
CCC(CC)Cc1nc(-c2nc(N)c3c(n2)NC(=O)C3(C)c2ccc(F)cc2)cn2ccnc12 (stereo not drawn) [Example 13A, 4-amino-2-(8-(2-ethylbutyl)imidazo[1,2-a]pyrazin-6-yl)-5-(4-fluorophenyl)-5-methyl-5H-pyrrolo[2,3-d]pyrimidin-6(7H)-one]	114	42
CC(C)Cc1nc(-c2nc(N)c3c(n2)NC(=O)C3(c2ccc(Cl)cc2)C2CC2)cn2ccnc12 (stereo not drawn) [Example 22B, 4-amino-5-(4-chlorophenyl)-5-cyclopropyl-2-(8-isobutylimidazo[1,2-a]pyrazin-6-yl)-5H-pyrrolo[2,3-d]pyrimidin-6(7H)-one]	91	150

Second part, the compound after the results:

Emax [%]	EC50 [nM]	SMILES
82	194	Nc1nc(-c2cn3ccnc3c(CCCC(F)(F)F)n2)nc2c1C(c1ncc(Cl)cc1F)(C1CC1)C(=O)N2 (single isomer, unassigned) [Example 371A, 4-amino-5-(5-chloro-3-fluoropyridin-2-yl)-5-cyclopropyl-2-(8-(4,4,4-trifluorobutyl)imidazo[1,2-a]pyrazin-6-yl)-5H-pyrrolo[2,3-d]pyrimidin-6(7H)-one]
87	152	CC(F)(F)c1ccc(C2(C)C(=O)Nc3nc(-c4cn5ccnc5c(CCC(F)(F)C(F)(F)F)n4)nc(N)c32)cn1 (single isomer, unassigned) [Example 379A, 4-amino-5-(6-(1,1-difluoroethyl)pyridin-3-yl)-5-methyl-2-(8-(3,3,4,4,4-pentafluorobutyl)imidazo[1,2-a]pyrazin-6-yl)-5H-pyrrolo[2,3-d]pyrimidin-6(7H)-one]
181	35	CC(F)(F)c1ccc(C2(C)C(=O)Nc3nc(-c4cn5ccnc5c(CCCC(F)(F)F)n4)nc(N)c32)cn1 (single isomer, unassigned) [Example 380B, 4-amino-5-(6-(1,1-difluoroethyl)pyridin-3-yl)-5-methyl-2-(8-(4,4,4-trifluorobutyl)imidazo[1,2-a]pyrazin-6-yl)-5H-pyrrolo[2,3-d]pyrimidin-6(7H)-one]
123	32	CC1(c2ccc(F)cc2)C(=O)Nc2nc(-c3cn4ccnc4c(CCc4cccc(F)c4)n3)nc(N)c21 (stereo not drawn) [Example 4A, 4-amino-2-(8-(3-fluorophenethyl)imidazo[1,2-a]pyrazin-6-yl)-5-(4-fluorophenyl)-5-methyl-5H-pyrrolo[2,3-d]pyrimidin-6(7H)-one]
124	157	CCCc1nc(-c2nc(N)c3c(n2)NC(=O)C3(C)c2ccc(F)cc2)cn2ccnc12 (stereo not drawn) [Example 17A, 4-amino-5-(4-fluorophenyl)-5-methyl-2-(8-propylimidazo[1,2-a]pyrazin-6-yl)-5H-pyrrolo[2,3-d]pyrimidin-6(7H)-one]
106	145	CCC(CC)Cc1nc(-c2nc(N)c3c(n2)NC(=O)C3(C)c2ccc(F)cn2)cn2ccnc12 (stereo not drawn) [Example 18B, 4-amino-2-(8-(2-ethylbutyl)imidazo[1,2-a]pyrazin-6-yl)-5-(5-fluoropyridin-2-yl)-5-methyl-5H-pyrrolo[2,3-d]pyrimidin-6(7H)-one]
113	387	CC(C)Cc1nc(-c2nc(N)c3c(n2)NC(=O)C3(C)c2ccc(F)cc2)cn2ccnc12 (stereo not drawn) [Example 19A, 4-amino-5-(4-fluorophenyl)-2-(8-isobutylimidazo[1,2-a]pyrazin-6-yl)-5-methyl-5H-pyrrolo[2,3-d]pyrimidin-6(7H)-one]
95	197	CC1(c2ccc(F)cc2)C(=O)Nc2nc(-c3cn4ccnc4c(C4CCC4)n3)nc(N)c21 (stereo not drawn) [Example 21A, 4-amino-2-(8-cyclobutylimidazo[1,2-a]pyrazin-6-yl)-5-(4-fluorophenyl)-5-methyl-5H-pyrrolo[2,3-d]pyrimidin-6(7H)-one]
96	257	CC(C)Cc1nc(-c2nc(N)c3c(n2)NC(=O)C3(C)c2ccc(F)cn2)cn2ccnc12 (stereo not drawn) [Example 23B, 4-amino-5-(5-fluoropyridin-2-yl)-2-(8-isobutylimidazo[1,2-a]pyrazin-6-yl)-5-methyl-5H-pyrrolo[2,3-d]pyrimidin-6(7H)-one]
